Results from patent US6429191B1, “Treatment of hearing impairments” (Genentech, Inc., priority 1996, dated 2002).
Where two headings read alike, the source gives them in different places.

How the values were obtained:
[1] = tested on: SGNs in cochlear explants
Description: (§1) Cochlear explants were prepared from P3 rats, embedded and cultured in 3-D collagen gels. Ototoxins were added at various concentrations to 2-day cultures for 2 more days. After the preparations were processed for double histochemistry with N52 and phalloidin, they were examined under Zeiss Axiophot epifluorescent microscope. For each culture, SGN peripheral axons and hair cells were counted from 3-4 randomly selected fields in the middle turn of each culture. Data were collected from 6 or more cultures for each of the experimental groups. Two-tailed, unpaired t-test was used for statistical analysis. […] The error bars are SEM and double asterisks (**) indicate significant differences between experimental and control cultures (p<0.001).
(§2) An organotype cochlear explant culture that utilizes a 3-D collagen matrix cultures and maintains its normal, in vivo architecture. Cochleae were dissected from postnatal day 3 (P3) Wistar rats. After spiral ligament and stria vascularis tissues were removed, the remaining cochlear tissue containing the spiral ganglion and organ of Corti was cut into 3 pieces according to the basal, middle and apical turns. The explants were then embedded in a three-dimensional (“3-D”) collagen matrix of a droplet (20 μl) of freshly made collagen gel which was placed on the bottom of a 35 mm Nunc tissue culture dish, modified from what described previously (Gao et al., 1991) as follows. Rat tail collagen (type I, Collaborative Research) was mixed with 10× BME medium and 2% sodium carbonate in a ratio of 10:1:1 and placed on ice just before use. The collagen matrix containing the cochlear explants were incubated at 37° C. for 5-10 min until it gelled. The matrix was then cultured in defined serum-free medium using sufficient medium to cover the explants (2 ml of serum-free medium (BME plus serum-free supplement (Sigma 1-1884), 1% BSA, 2 mM glutamine, and 5 mg/ml glucose; containing no antibiotics). The culture medium was changed every other day thereafter.
(§3) While the neurofilament antibody (Texas red-mediated) labeled the somata and peripheral axons of SGNs, the phalloidin-FITC conjugate stained the stereocillia bundles of hair cells. Three cultures per experimental paradigm were studied in each individual experiment. Three or more separate repetitions of the experiment were conducted to validate the ototoxic effect.
(§4) As the density of the radial peripheral axons of SGNs appeared to be a reliable index of the number of surviving SGNs, the number of the peripheral axons of SGNs from a given length (100 μm) in the middle turn of the cochlea was counted for different experimental groups and plotted in FIG. 6A. Phalloidin-labeled hair cells were also counted in the same way (FIG. 6B).
(§5) Quantitative analysis of the numbers of peripheral axons of SGNs and hair cells in the cochlear explants were performed. The N52 and phalloidin double-labeled cochlear explants were examined under a Zeiss Axiophot epifluorescent microscope. As the density of radial peripheral axons of SGNs reflects the number of surviving SGNs, the number of these axons was counted using a grid ocular reticule covering a distance of 100 μm in the middle turns only. The surviving hair cells were counted in a similar manner. […] For each culture, SGN peripheral axons and hair cells were counted from 3-4 randomly selected fields in the middle turn of each culture.

[2] = tested on: hair cells in cochlear explants
Description: as §1, §2, §3, §4, §5

[3] = cited from earlier work
trkC receptor = trkC receptor (Homo sapiens, UniProt Q16288); conditions: cited from earlier work
Sequence of trkC receptor (Q16288 32-839): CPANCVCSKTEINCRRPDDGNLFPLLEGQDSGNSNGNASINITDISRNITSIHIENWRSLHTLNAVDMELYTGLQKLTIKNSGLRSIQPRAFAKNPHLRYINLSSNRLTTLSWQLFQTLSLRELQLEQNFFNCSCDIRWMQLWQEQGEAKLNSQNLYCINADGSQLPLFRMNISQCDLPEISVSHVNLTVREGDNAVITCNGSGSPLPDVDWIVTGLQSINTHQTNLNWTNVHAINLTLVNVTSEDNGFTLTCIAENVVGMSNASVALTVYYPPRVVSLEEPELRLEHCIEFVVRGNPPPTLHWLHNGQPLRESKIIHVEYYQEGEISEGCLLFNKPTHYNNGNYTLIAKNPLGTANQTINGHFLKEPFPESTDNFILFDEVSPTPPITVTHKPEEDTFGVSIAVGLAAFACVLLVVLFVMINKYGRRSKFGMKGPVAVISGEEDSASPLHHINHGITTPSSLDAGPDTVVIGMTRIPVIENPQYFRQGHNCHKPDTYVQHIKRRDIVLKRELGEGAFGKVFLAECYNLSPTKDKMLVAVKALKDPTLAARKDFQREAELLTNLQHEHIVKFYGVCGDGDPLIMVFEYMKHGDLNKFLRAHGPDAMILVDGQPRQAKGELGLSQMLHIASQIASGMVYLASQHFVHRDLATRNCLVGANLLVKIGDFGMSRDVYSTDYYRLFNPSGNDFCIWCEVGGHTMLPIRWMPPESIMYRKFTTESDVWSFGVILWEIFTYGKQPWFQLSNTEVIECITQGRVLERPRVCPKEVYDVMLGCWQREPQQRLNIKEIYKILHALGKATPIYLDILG

[4] = tested on: spiral ganglion neurons (SGNs); assay: Survival of dissociated spiral ganglion neurons in serum-free culture; type: cell-based, rat; conditions: for survival-promoting effect on SGNs: P5 rat SGNs, 2 days, serum-free medium, neurotrophins 0.1-50 ng/ml
Description: FIG. 1 is a histogram depicting the effects of NT-4/5 on SGN survival. SGNs were prepared from P5 rats, plated and kept for 2 days in serum-free medium in the absence or presence of NT-4/5 at different concentrations. Viable SGNs were identified by labeling with a neurofilament monoclonal antibody (N52), viewed under a Zeiss Axiophot microscope, and counted using a grid ocular reticule covering an area of […]. For each culture, about 10 randomly selected fields were counted. Data were collected from 3 to 5 cultures and normalized as a percentage of the number of viable neurons in the control cultures in each of the experiments. The error bars represent SEM.
FIG. 2 is a histogram depicting the effects of different neurotrophins on SGN survival. SGNs were prepared from P5 rats and maintained for 2 days in serum-free medium without or with different neurotrophins at different concentrations. Quantitation of viable SGNs was made in the same way as in FIG. 1 and the error bars are SEM. […] Difference between NT-3 and NT-4/5 or BDNF was very significant at all doses (P<0.001). No statistical difference was found between NT-4/5 and BDNF except the dose of 0.1 ng/ml (P<0.01).
Identical results (not shown) were also obtained with a different neuronal marker, a monoclonal antibody 3A10 (Furley et al., 1990). SGNs were dissociated from postnatal day 5 (P5) rat cochleae and plated in defined serum-free medium. […] The enzyme was inactivated with a mixture of 0.005% soybean trypsin inhibitor (Sigma) and 0.005% DNase (Worthington) before trituration with 0.05% DNase in Eagle's Basal Medium (“BME”). The dissociated cells were preplated on a 35 mm untreated tissue culture dish for 25 min to enrich the neuronal population. Under these experimental procedures, about 10% of the cell population were spiral ganglion neurons (“SGNs”) as determined by immunocytochemistry with a monoclonal antibody (N52; Boehringer) against neurofilaments (200 kd; Boehringer). […] Cells were plated at a density of 80,000/well. In control cultures about 75% of SGNs died after 2 days, presumably due to a lack of growth factors.

[5] = tested on: SGNs in cochlear explants; assay: Protective effects in cochlear explant cultures co-treated with ototoxins, SGN peripheral axon count; type: cell-based, rat; conditions: for protective effects on SGNs against ototoxins: growth factor added together with ototoxin, data not shown; for neuroprotection of SGNs against sodium salicylate and gentamicin: 20 ng/ml neurotrophin, sodium salicylate 5 mM or gentamicin 3 mM
Description: (§6) FIGS. 9A and 9B depict quantitation of protective effects of NT-4/5 on SGNs (FIG. 9A) and hair cells (FIG. 9B). […] The same experimental procedures were performed as in FIGS. 6A and 6B. The error bars are SEM and ** indicate that as compared to the cultures containing an ototoxin alone, p<0.001. “Con” indicates control culture.
FIG. 10 depicts quantitation of neuroprotection of different neurotrophins against sodium salicylate (Sal) and gentamicin (Gent). […] Sodium salicylate (5 mM) or gentamicin (3 mM) was added either alone or in combination with one of the neurotrophins (20 ng/ml) to 2-day cultures and the cultures were kept for 2 more days. The same experimental procedures were performed as in FIGS. 6A and 6B. […] The error bars are SEM and ** indicate that as compared to the cultures containing an ototoxin alone, p<0.001.
(§7) The protective effect of neurotrophins against ototoxicity was determined in the organotypic cultures of postnatal cochlear explants described in the Examples above. […] A human recombinant neurotrophin (Genentech, Inc.) or other growth factors, alone or in combination, was added to the culture at the same time the ototoxin was added.
(§8) Two days after treatment with ototoxins or co-treatment with ototoxins and neurotrophins (or other growth factors), the cochlear explant cultures were fixed in 4% paraformaldehyde in 0.1 M phosphate buffer (pH 7.4) for 30 min, washed in PBS, and subjected to double histochemical staining of the cochlear explant cultures. After incubation with the monoclonal antibody N52 against neurofilament protein (200 kd) in 1% Triton X100 containing 3% normal goat serum (“NGS”) for 2 days at 4° C., the explants were incubated with a Texas red-conjugated goat anti-mouse secondary antibody (1:70; Cappel) at room temperature for 40 min. The preparations were then stained with FITC-conjugated phalloidin (0.5 μg/ml; Sigma) for 45 min, washed in PBS and mounted in Fluoromount-G (Southern Biotechnology Associates, Birmingham, Ala.) which contains an anti-fading agent.

[6] = tested on: hair cells in cochlear explants; assay: Protective effects in cochlear explant cultures co-treated with ototoxins, hair cell count; type: cell-based, rat; conditions: growth factor added together with ototoxin; data not shown
Description: as §6, §7, §8

[7] = tested on: spiral ganglion neurons (SGNs); assay: Neurotrophin protection of dissociated SGNs against cisplatin neurotoxicity; type: cell-based, rat; conditions: for protection of SGNs compared with cultures containing cisplatin alone / protective effects against cisplatin neurotoxicity: 10 ng/ml neurotrophin; for protection of SGNs compared with cultures containing cisplatin alone: 4 μg/ml cisplatin; for protective effects against cisplatin neurotoxicity: cisplatin 1, 2 or 4 μg/ml
Description: Quantitation of viable SGNs was done in the same way as in FIG. 1. The error bars stand for SEM. […] While no difference was found between cultures containing NT-4/5 and cultures containing BDNF, the difference between cultures containing NT-3 and cultures containing NT-4/5 or BDNF was statistically very significant (P<0.001).

trkB receptor = trkB receptor (Homo sapiens, UniProt Q16620); conditions: naturally occurring NGF vs BDNF; cited from earlier work
Sequence of trkB receptor (Q16620 32-822): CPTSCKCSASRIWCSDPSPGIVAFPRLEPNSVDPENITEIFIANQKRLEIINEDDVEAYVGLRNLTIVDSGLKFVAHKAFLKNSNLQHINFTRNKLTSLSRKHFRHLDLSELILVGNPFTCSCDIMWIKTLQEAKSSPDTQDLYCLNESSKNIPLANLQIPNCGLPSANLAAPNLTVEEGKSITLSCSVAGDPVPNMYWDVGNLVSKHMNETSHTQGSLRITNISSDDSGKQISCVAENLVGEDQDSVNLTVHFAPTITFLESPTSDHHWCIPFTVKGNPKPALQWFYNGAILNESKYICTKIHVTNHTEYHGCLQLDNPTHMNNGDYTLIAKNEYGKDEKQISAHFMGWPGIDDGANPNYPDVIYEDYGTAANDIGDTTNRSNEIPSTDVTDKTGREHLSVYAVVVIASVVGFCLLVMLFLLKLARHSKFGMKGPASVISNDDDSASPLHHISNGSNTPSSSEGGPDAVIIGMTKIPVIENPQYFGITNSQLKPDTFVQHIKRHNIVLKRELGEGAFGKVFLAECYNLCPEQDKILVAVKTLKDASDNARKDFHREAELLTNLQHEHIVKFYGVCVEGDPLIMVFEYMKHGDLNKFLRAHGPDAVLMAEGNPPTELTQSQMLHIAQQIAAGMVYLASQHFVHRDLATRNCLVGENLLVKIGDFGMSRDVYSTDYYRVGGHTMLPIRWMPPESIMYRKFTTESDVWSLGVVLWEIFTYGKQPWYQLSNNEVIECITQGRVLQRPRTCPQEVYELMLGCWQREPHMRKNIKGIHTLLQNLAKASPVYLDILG

O=C([O-])c1ccccc1O.[Na+] [sodium salicylate]
effect on SGNs and their peripheral axons ([1]; 5 mM, added to 2-day cultures for 2 more days): massive death of SGNs and degeneration of their peripheral axons | dosage which starts to induce significant damage to SGNs ([1]; cochlear explant cultures): 3 mM | SGN degeneration, dose dependence ([1]; various concentrations): dose dependent | effect on hair cells ([2]; 5 mM): all hair cells remained intact | hair cell loss ([2]; 10 mM): no significant hair cell loss

[H]/N=C(/N)N[C@H]1[C@H](O)[C@@H](O)[C@H](O[C@@H]2O[C@@H](C)[C@](O)(C=O)[C@H]2O[C@@H]2O[C@@H](CO)[C@H](O)[C@@H](O)[C@@H]2NC)[C@@H](N/C(N)=N\[H])[C@@H]1O [streptomycin]
patients developing measurable hearing loss ([3]; 1 gram per day for greater than 1 week): 4 to 15% | incidence of vestibular impairment ([3]; 1 gram per day): 25% | patients displaying some vestibular impairment ([3]; 2 grams daily for 60 to 120 days): ~75%

R31A: NT-3 with mutation at position R31 to alanine
trkC binding of NT-3 mutant (trkC receptor; compared with NT-3): increased trkC binding

basic fibroblast growth factor [βFGF]
survival-promoting effect on SGNs [4]: No survival-promoting effects | protective effects on SGNs against ototoxins [5]: did not show detectable protective effects | protective effects on hair cells against ototoxins [6]: did not show detectable protective effects

brain-derived neurotrophic factor [BDNF]
survival-promoting effect on SGNs [4]: very significant survival-promoting effects | potency on SGN survival compared with other neurotrophins ([4]; concentrations from 1-50 ng/ml): equal in potency to NT-4/5 | protection of SGNs compared with cultures containing cisplatin alone [7]: very significant protecting effects | protective effects against cisplatin neurotoxicity [7]: Equivalent protective effects | neuroprotection of SGNs against sodium salicylate and gentamicin [5]: protective effects on SGNs

epidermal growth factor [EGF, growth factor (Collaborative Research)]
survival-promoting effect on SGNs [4]: No survival-promoting effects | protective effects on SGNs against ototoxins [5]: did not show detectable protective effects | protective effects on hair cells against ototoxins [6]: did not show detectable protective effects

gentamicin
SGNs remaining intact ([1]; 5 mM): approximately 40% | damage to SGNs ([1]; 0.01 to 0.5 mM): not significantly damaged | damage to SGNs ([1]; 1-5 mM): started to induce SGN degeneration | doses at which damage to SGNs starts ([1]; figure legend FIG. 7A): higher than 1 mM | effect on hair cells ([2]; 0.01 to 0.5 mM): a substantial number of hair cells in the cochlea were killed | effect on hair cells ([2]; 1-5 mM): eliminated virtually all hair cells

insulin-like growth factor-1 [IGF-1]
protective effects on SGNs against ototoxins [5]: did not show detectable protective effects | protective effects on hair cells against ototoxins [6]: did not show detectable protective effects

nerve growth factor [NGF]
survival-promoting effect on SGNs [4]: no detectable effects | protective effects against cisplatin neurotoxicity [7]: did not show any protective effects | neuroprotection of SGNs against sodium salicylate and gentamicin [5]: did not show any detectable protection | KD at trkB relative to BDNF (fold lower) (trkB receptor): 500-1000 fold | KD at trkC relative to NT-3 (fold lower) (trkC receptor; naturally occurring NGF vs NT-3): 500-1000 fold

neurotrophin-3 [NT-3]
survival-promoting effect on SGNs [4]: significant survival-promoting effect | potency on SGN survival compared with other neurotrophins ([4]; all doses (0.1-50 ng/ml)): less potent than NT-4/5 or BDNF | potency of protection against cisplatin compared with other neurotrophins ([7]; 10 ng/ml): less potent compared to NT-4/5 or BDNF | protection of SGNs compared with cultures containing cisplatin alone [7]: very significant protecting effects | protective effects against cisplatin neurotoxicity [7]: significant protective effects | neuroprotection of SGNs against sodium salicylate and gentamicin [5]: protective effects on SGNs

platelet-derived growth factor [PDGF]
protective effects on SGNs against ototoxins [5]: did not show detectable protective effects | protective effects on hair cells against ototoxins [6]: did not show detectable protective effects

transforming growth factor-α [TGF-α]
protective effects on SGNs against ototoxins [5]: did not show detectable protective effects | protective effects on hair cells against ototoxins [6]: did not show detectable protective effects

transforming growth factor-β1 [TGF-β1]
survival-promoting effect on SGNs [4]: No survival-promoting effects | protective effects on SGNs against ototoxins [5]: did not show detectable protective effects | protective effects on hair cells against ototoxins [6]: did not show detectable protective effects
